In patent publication US20170190671A1, “BIS(ARYL)CATECHOL DERIVATIVES AS HERBICIDES” (E I DU PONT DE NEMOURS AND COMPANY, priority 2014, published 2017):

Assays:
Assay in all cases: Test C postemergence
Assay type in all cases: in vivo
[1] = test system: Italian ryegrass (Lolium multiflorum); details: Lolium multiflorum, post-emergence, 336 h, Postemergence, scale 0 to 100, read-out: Plant response rating, Ryegrass, Italian
Procedure, shortened: (§1)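 Visual ratings were made 13-15 days after treatment in the greenhouse, scored 0-100 against controls, where 100 means complete control. Treatments used a surfactant-containing non-phytotoxic solvent formulation, applied preemergence to seeds in loam-sand soil or postemergence to 2-18 cm plants (1-4 leaves) in peat-based medium.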

[2] = test system: barnyardgrass (Echinochloa crus-galli); details: Echinochloa crus-galli, post-emergence, Postemergence, scale 0 to 100, read-out: Plant response rating, Barnyardgrass
Procedure, shortened: as §1

[3] = test system: blackgrass (Alopecurus myosuroides); details: Alopecurus myosuroides, post-emergence, 336 h, Postemergence, scale 0 to 100, read-out: Plant response rating, Blackgrass
Procedure, shortened: as §1

[4] = test system: chickweed (common chickweed, Stellaria media); details: Stellaria media, post-emergence, Postemergence, scale 0 to 100, read-out: Plant response rating, Chickweed
Procedure, shortened: as §1

corn (Zea mays) = details: Zea mays, post-emergence, 336 h, Postemergence, scale 0 to 100
Procedure, shortened: as §1

[5] = test system: giant foxtail (Setaria faberii); details: Setaria faberi, post-emergence, 336 h, Postemergence, scale 0 to 100, read-out: Plant response rating, Foxtail, Giant
Procedure, shortened: as §1

[6] = test system: johnsongrass (Sorghum halepense); details: Sorghum halepense, post-emergence, 336 h, Postemergence, scale 0 to 100, read-out: Plant response rating, Johnsongrass
Procedure, shortened: as §1

[7] = test system: lambsquarters (Chenopodium album); details: Chenopodium album, post-emergence, 336 h, Postemergence, scale 0 to 100, read-out: Plant response rating, Lambsquarters
Procedure, shortened: as §1

[8] = test system: oilseed rape (Brassica napus); details: Brassica napus, post-emergence, Postemergence, scale 0 to 100, read-out: Plant response rating, Oilseed Rape
Procedure, shortened: as §1

[9] = test system: pigweed (Amaranthus retroflexus); details: Amaranthus retroflexus, post-emergence, 336 h, Postemergence, scale 0 to 100, read-out: Plant response rating, Pigweed
Procedure, shortened: as §1

[10] = test system: ragweed (common ragweed, Ambrosia elatior); details: Ambrosia artemisiifolia, post-emergence, 336 h, Postemergence, scale 0 to 100, read-out: Plant response rating, Ragweed
Procedure, shortened: as §1

soybean (Glycine max) = details: Glycine max, post-emergence, Postemergence, scale 0 to 100, read-out: Plant response rating, Soybean
Procedure, shortened: as §1

[11] = test system: waterhemp (common waterhemp, Amaranthus rudis); details: Amaranthus tuberculatus, post-emergence, Postemergence, scale 0 to 100, read-out: Plant response rating, Waterhemp
Procedure, shortened: as §1

wild oat (Avena fatua) = details: Avena fatua, post-emergence, Postemergence, scale 0 to 100, read-out: Plant response rating, Oat, Wild
Procedure, shortened: as §1

[12] = test system: yellow nutsedge (Cyperus esculentus); details: Cyperus, post-emergence, 336 h, Postemergence, scale 0 to 100, read-out: Plant response rating, Nutsedge, Yellow
Procedure, shortened: as §1

SMILES: N#Cc1cccc(Oc2ncc(Cl)cn2)c1Oc1ccc(Cl)cn1 [Compound 16, 2-[(5-chloro-2-pyridinyl)oxy]-3-[(5-chloro-2-pyrimidinyl)oxy]benzonitrile]
- pest or weed control at 31 g/ha ([1]; 31 g ai/ha): 10%
- pest or weed control at 62 g/ha ([1]; 62 g ai/ha): 5%
- pest or weed control at 125 g/ha ([1]; 125 g ai/ha): 15%
- pest or weed control at 16 g/ha ([2]; 16 g ai/ha): 10%
- pest or weed control at 31 g/ha ([2]; 31 g ai/ha): 15%
- pest or weed control at 62 g/ha ([2]; 62 g ai/ha): 15%
- pest or weed control at 125 g/ha ([2]; 125 g ai/ha): 20%
- pest or weed control at 16 g/ha ([3]; 16 g ai/ha): 5%
- pest or weed control at 31 g/ha ([3]; 31 g ai/ha): 5%
- pest or weed control at 62 g/ha ([3]; 62 g ai/ha): 5%
- pest or weed control at 125 g/ha ([3]; 125 g ai/ha): 10%
- pest or weed control at 16 g/ha ([4]; 16 g ai/ha): 25%
- pest or weed control at 31 g/ha ([4]; 31 g ai/ha): 60%
- pest or weed control at 62 g/ha ([4]; 62 g ai/ha): 80%
- pest or weed control at 125 g/ha ([4]; 125 g ai/ha): 80%
- Corn plant response rating (crop injury, 0 = no effect, 100 = complete kill) at 16 g/ha (corn (Zea mays); 16 g ai/ha): 10%
- Corn plant response rating (crop injury, 0 = no effect, 100 = complete kill) at 31 g/ha (corn (Zea mays); 31 g ai/ha): 20%
- Corn plant response rating (crop injury, 0 = no effect, 100 = complete kill) at 62 g/ha (corn (Zea mays); 62 g ai/ha): 10%
- Corn plant response rating (crop injury, 0 = no effect, 100 = complete kill) at 125 g/ha (corn (Zea mays); 125 g ai/ha): 15%
- pest or weed control at 16 g/ha ([5]; 16 g ai/ha): 10%
- pest or weed control at 31 g/ha ([5]; 31 g ai/ha): 15%
- pest or weed control at 62 g/ha ([5]; 62 g ai/ha): 20%
- pest or weed control at 125 g/ha ([5]; 125 g ai/ha): 35%
- pest or weed control at 16 g/ha ([6]; 16 g ai/ha): 5%
- pest or weed control at 31 g/ha ([6]; 31 g ai/ha): 5%
- pest or weed control at 62 g/ha ([6]; 62 g ai/ha): 10%
- pest or weed control at 125 g/ha ([6]; 125 g ai/ha): 10%
- pest or weed control at 16 g/ha ([7]; 16 g ai/ha): 65%
- pest or weed control at 31 g/ha ([7]; 31 g ai/ha): 80%
- pest or weed control at 62 g/ha ([7]; 62 g ai/ha): 75%
- pest or weed control at 125 g/ha ([7]; 125 g ai/ha): 90%
- plant injury at 31 g/ha ([8]; 31 g ai/ha): 70%
- plant injury at 62 g/ha ([8]; 62 g ai/ha): 80%
- plant injury at 125 g/ha ([8]; 125 g ai/ha): 50%
- pest or weed control at 31 g/ha ([9]; 31 g ai/ha): 80%
- pest or weed control at 62 g/ha ([9]; 62 g ai/ha): 85%
- pest or weed control at 125 g/ha ([9]; 125 g ai/ha): 100%
- pest or weed control at 31 g/ha ([10]; 31 g ai/ha): 60%
- pest or weed control at 62 g/ha ([10]; 62 g ai/ha): 50%
- pest or weed control at 125 g/ha ([10]; 125 g ai/ha): 70%
- plant injury at 31 g/ha (soybean (Glycine max); 31 g ai/ha): 70%
- plant injury at 62 g/ha (soybean (Glycine max); 62 g ai/ha): 45%
- plant injury at 125 g/ha (soybean (Glycine max); 125 g ai/ha): 55%
- pest or weed control at 31 g/ha ([11]; 31 g ai/ha): 90%
- pest or weed control at 62 g/ha ([11]; 62 g ai/ha): 95%
- pest or weed control at 125 g/ha ([11]; 125 g ai/ha): 90%
- pest or weed control at 31 g/ha (wild oat (Avena fatua); 31 g ai/ha): 10%
- pest or weed control at 62 g/ha (wild oat (Avena fatua); 62 g ai/ha): 5%
- pest or weed control at 125 g/ha (wild oat (Avena fatua); 125 g ai/ha): 5%
- pest or weed control at 31 g/ha ([12]; 31 g ai/ha): 10%
- pest or weed control at 62 g/ha ([12]; 62 g ai/ha): 10%
- pest or weed control at 125 g/ha ([12]; 125 g ai/ha): 15%
